In ChEMBL document CHEMBL1139192, “Novel bis(indolyl)maleimide pyridinophanes that are potent, selective inhibitors of glycogen synthase kinase-3” (Bioorg Med Chem Lett, 2007):

Tests used:
[1] = molecular target: Protein kinase C theta type (Homo sapiens, UniProt Q04759); assay: Inhibition of human PKCtheta
[2] = molecular target: Ribosomal protein S6 kinase alpha-1 (Homo sapiens, UniProt Q15418); assay: Inhibition of human Rsk1
[3] = species: Homo sapiens; assay: Selectivity for human recombinant GSK3-beta over human recombinant PKCbeta2
[4] = molecular target: Ribosomal protein S6 kinase alpha-5 (Homo sapiens, UniProt O75582); assay: Inhibition of human MSK1
Chain of Ribosomal protein S6 kinase alpha-5 (O75582 whole entry): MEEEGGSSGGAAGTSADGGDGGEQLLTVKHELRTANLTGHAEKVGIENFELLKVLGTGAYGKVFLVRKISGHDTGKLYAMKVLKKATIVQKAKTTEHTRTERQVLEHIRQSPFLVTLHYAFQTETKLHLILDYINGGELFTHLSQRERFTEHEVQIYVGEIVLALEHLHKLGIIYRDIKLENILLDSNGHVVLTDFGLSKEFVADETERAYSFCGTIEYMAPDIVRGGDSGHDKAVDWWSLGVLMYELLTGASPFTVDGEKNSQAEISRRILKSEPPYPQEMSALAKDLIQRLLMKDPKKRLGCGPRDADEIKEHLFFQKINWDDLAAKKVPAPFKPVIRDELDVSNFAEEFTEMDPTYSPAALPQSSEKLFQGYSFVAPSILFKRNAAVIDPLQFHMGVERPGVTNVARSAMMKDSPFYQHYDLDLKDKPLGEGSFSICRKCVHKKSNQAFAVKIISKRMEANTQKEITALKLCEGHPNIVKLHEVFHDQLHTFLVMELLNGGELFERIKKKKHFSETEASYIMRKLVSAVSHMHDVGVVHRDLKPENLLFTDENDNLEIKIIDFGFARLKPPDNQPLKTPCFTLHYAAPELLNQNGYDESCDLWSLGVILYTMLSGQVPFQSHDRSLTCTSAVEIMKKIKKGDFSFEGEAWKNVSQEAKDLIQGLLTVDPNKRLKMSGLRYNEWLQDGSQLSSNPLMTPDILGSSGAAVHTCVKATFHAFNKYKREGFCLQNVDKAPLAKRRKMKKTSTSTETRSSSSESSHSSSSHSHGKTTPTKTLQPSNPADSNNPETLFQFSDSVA

Chain of Ribosomal protein S6 kinase alpha-1 (Q15418 whole entry): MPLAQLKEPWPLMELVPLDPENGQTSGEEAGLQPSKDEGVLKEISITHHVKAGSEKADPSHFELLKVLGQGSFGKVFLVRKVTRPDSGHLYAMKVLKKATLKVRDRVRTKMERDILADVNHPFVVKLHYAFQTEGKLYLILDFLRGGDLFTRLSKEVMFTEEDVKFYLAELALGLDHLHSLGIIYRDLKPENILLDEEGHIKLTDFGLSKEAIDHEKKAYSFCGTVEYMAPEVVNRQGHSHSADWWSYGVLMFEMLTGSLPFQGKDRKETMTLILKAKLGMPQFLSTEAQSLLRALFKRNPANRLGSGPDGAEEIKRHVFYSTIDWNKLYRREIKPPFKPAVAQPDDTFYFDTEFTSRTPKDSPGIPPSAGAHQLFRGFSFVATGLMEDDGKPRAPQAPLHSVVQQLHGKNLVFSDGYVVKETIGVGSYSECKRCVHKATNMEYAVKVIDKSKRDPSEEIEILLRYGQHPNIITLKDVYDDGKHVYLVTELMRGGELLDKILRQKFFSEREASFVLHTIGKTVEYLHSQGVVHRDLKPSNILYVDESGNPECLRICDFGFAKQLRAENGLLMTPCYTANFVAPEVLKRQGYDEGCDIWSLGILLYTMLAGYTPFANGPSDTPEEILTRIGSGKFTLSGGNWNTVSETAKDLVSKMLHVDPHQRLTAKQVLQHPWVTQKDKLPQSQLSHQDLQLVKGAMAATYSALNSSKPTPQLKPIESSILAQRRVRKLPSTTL
Chain of Protein kinase C theta type (Q04759 whole entry): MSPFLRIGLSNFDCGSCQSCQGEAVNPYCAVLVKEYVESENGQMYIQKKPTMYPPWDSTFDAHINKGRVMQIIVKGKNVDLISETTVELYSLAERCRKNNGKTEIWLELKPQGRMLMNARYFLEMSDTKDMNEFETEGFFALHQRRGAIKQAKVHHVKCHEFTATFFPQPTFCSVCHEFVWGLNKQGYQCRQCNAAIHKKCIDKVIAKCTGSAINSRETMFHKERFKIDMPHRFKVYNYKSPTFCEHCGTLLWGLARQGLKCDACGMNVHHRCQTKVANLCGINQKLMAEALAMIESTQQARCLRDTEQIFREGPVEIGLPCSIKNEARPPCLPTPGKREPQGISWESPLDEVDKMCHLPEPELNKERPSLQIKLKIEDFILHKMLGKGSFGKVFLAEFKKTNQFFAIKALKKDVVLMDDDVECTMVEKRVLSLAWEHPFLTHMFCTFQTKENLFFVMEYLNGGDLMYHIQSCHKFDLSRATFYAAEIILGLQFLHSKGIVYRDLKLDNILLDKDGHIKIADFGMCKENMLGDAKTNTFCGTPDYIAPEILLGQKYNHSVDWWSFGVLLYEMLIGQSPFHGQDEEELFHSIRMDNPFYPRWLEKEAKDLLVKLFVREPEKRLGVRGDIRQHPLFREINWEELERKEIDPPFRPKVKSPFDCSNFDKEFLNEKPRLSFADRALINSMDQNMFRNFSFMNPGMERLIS

Compound: CN(C)c1nc2ccc1CCCn1cc(c3ccccc31)C1=C(C(=O)NC1=O)c1cn(c3ccccc13)CC2
- IC50 [1]: 98 nM
- IC50 [2]: 1900 nM
- Ratio IC50 [3]: 460
- IC50 [4]: 510 nM
